`COCCCn1c(CO)c(Br)c2c3c(c(-c4ccccc4Cl)cc21)C(=O)NC3=O` showed a melting point of 178 to 180 °C. Work on `CCCCCCCCCCCCCCCCCCCCOC(=O)P(=O)(OC)OC` yielded a melting point of 53 to 54 °C. `Cc1cccc(C2=C(c3ccc(S(C)(=O)=O)cc3)CN(C)C2=O)c1` gave a melting point of 163 to 165 °C. `CCCc1nc(CO)n2[nH]c(=O)nc2c1Cc1ccc(-c2ccccc2-c2nnn[nH]2)cc1` showed a melting point of 182 to 183 °C. `CCCCC(=O)c1ccc(-c2ccc(C(=O)Nc3ccc(OC)c(N4CCN(C)CC4)c3)cc2C)cc1` gave a melting point of 65 to 67 °C. Compound `NNc1c(S(=O)(=O)C(F)(F)F)cnn1-c1c(Cl)cc(C(F)(F)F)cc1Cl` has a melting point of 154 °C. `CCN1C(=O)CCCc2cc(Nc3ncc(Cl)c(Nc4ccccc4OC)n3)c(OC)cc21` showed a melting point of 78 to 80 °C. In the case of `CCOP(=O)(OCC)N1CCN(c2cc3c(cc2F)c(=O)c(C(=O)O)cn3C2CC2)CC1`, the melting point is reported as 192 to 193 °C. Compound `CC(C(=O)O)c1ccc(-c2ccccc2F)cc1` (stereo not drawn) has a melting point of 94.5 to 97 °C. Compound `CCc1c(C(=O)O)nn(-c2ccc(Cl)cc2Cl)c1-c1ccc(Br)cc1` has a melting point of 218 °C. `CN1C(=O)[C@H](NC(=O)CCc2cccc(C(F)(F)F)c2)N=C(c2ccccc2)c2ccccc21` gave a melting point of 135 to 136 °C. Work on `CC[C@@H](C1CC1)n1cc(Cl)nc(N2CCc3cc(Br)cc(Br)c32)c1=O` yielded a melting point of 165 °C. Compound `COc1cc(OC)nc(Oc2ccc3ccccc3c2C(=O)O)n1` has a melting point of 187 to 189 °C. `CC(C)(C)c1cc(SCCc2nnco2)cc(C(C)(C)C)c1O` gave a melting point of 87.5 to 89 °C. For `CCCNc1nc(C)c(CCCl)c(=O)n1C`, the melting point was 150 °C. `COc1cnc(OC)n2c(N)nnc12` showed a melting point of 232 to 235 °C. `COC(=O)[C@H](Cc1ccccc1)NC(=O)c1cnccn1` gave a melting point of 152 to 155 °C. `COc1cc(-c2oc3ccccc3c(=O)c2C(=O)O)cc(OC)c1OC` showed a melting point of 260 to 262 °C. `COc1ccc(/C(=C\C(=O)N2CCNCC2)c2ccccc2Cl)cc1` showed a melting point of 108 to 110 °C. `Cc1cnc2c(C(=O)NC=NO)c(Cl)ccc2c1` showed a melting point of 235 to 238 °C. `CCCCC(O)c1nc2c(C(F)(F)F)cccc2c(O)c1C(=O)Nc1nccs1` (stereo not drawn) showed a melting point of 190 °C. `N#Cc1c(Cc2ccccc2)nn(C2CCCC2)c1NC(=O)Cc1ccccc1` gave a melting point of 166 to 168 °C. Compound `Cc1ccc(-n2c(=O)[nH]c(C(F)(F)F)c(F)c2=O)cc1C(=O)OC(C)C` has a melting point of 97 to 100 °C. In the case of `CC1Cc2cc(NC(=O)OCc3ccccc3)ccc2N1C(=O)OCc1ccccc1` (stereo not drawn), the melting point is reported as 107 to 111 °C. With `CNC(=N)N(C)Cc1ccc(C)cc1` the melting point was 118 to 125 °C. Compound `O=[N+]([O-])c1cccc2cncc(Br)c12` has a melting point of 172 to 174 °C. Work on `Cc1cccnc1C(=O)c1[nH]c2cc(Cl)ccc2c1NC(=O)CC(C)C` yielded a melting point of 142 to 144 °C. `CC(C)(C#N)CNC(=O)c1nn(C2CCCCO2)cc1NC(=O)c1ccccn1` (stereo not drawn) showed a melting point of 138 to 140 °C. Compound `O=C(Nc1ccc(F)cc1)O[C@@H]1CN=C(c2ccccc2)O[C@H]1c1ccccc1` (racemic) has a melting point of 158 °C. Work on `COc1ccc(C(=O)CN(Cc2ccccc2)Cc2ccccc2)cc1C(N)=O` yielded a melting point of 113 to 114 °C. Compound `CCCc1nc2c(N)nc3cc(Br)ccc3c2n1CC1CCN(C(=O)OC(C)(C)C)CC1` has a melting point of 134 to 137 °C. `Oc1ccccc1CCC1NCCS1` (stereo not drawn) gave a melting point of 100 to 102 °C. For `c1cc2c3c(c[nH]c3c1)CC1NCCCC21` (stereo not drawn), the melting point was 170 to 173 °C. With `CC(=O)OC(COc1ccc(C(=O)O)cc1)c1cc2cc(C(C)C)ccc2o1` (stereo not drawn) the melting point was 135 to 137 °C. Compound `CCCN1C(=O)COc2cc(F)c(-n3nn[nH]c3=O)cc21` has a melting point of 145 to 148 °C. Work on `COc1ccc(COc2c(C)c(C)c3c(c2C)C(c2ccc(N4CCOCC4)cc2)C(C)(C)O3)cc1` (stereo not drawn) yielded a melting point of 110 to 112 °C. Compound `Oc1ccc(Oc2cccc(-c3c(Cc4ccccc4)cnc4c(C(F)(F)F)cccc34)c2)cc1` has a melting point of 55 to 60 °C. Work on `CCCN1CCC(Cc2ccc3c(c2)c(Cc2ccc(C(=O)NS(=O)(=O)c4ccccc4C)cc2OC)cn3C)C1=O` (stereo not drawn) yielded a melting point of 112 to 122 °C. `CCc1oc2cccc(O)c2c1C` showed a melting point of 105 to 107 °C. Compound `CCSc1c(C(F)(F)F)nn(-c2c(Cl)cc(C(F)(F)F)cc2Cl)c1N` has a melting point of 116 °C. `O=C1Nc2ccccc2C(c2ccccc2)CC1Br` (stereo not drawn) showed a melting point of 191 to 192 °C. With `O=C1CCCN1c1cnc2cnc(-c3ccc(O)cc3)nc2c1` the melting point was > 268 °C. For `O=C1CCN(c2ccc(C(=O)O)cc2)CCN1`, the melting point was 285 to 286 °C. For `CCc1[nH]n(C2CCCC2)c2nc(-c3ccccc3OCCCN3CCOCC3)nc(=O)c1-2`, the melting point was 220 to 221 °C. `CCn1nc(-c2ccc(OC)cc2)c(-c2ccc(OC)c(F)c2)cc1=O` gave a melting point of 162 °C. Work on `CC(=O)NC[C@H]1CN(c2ccc(N3CCC(Cc4nnn[nH]4)CC3)c(F)c2)C(=O)O1` yielded a melting point of 164 to 166 °C. For `CC1COCC(C)N1c1ccc(-c2nc(C(=O)Nc3nccs3)c(-c3ccc(Cl)cc3)[nH]2)cc1` (stereo not drawn), the melting point was > 250 °C. For `CCOC(=O)/C=C/c1ccc(-c2nc3c(=O)n(CC4CCCCC4)c(=O)n(CC4CCCCC4)c3[nH]2)cc1`, the melting point was > 300 °C. For `O=C(O)CCCCC[C@H]1CC[C@@H](O)CC1`, the melting point was 83 to 85 °C. `C(#Cc1ccc2[nH]ccc2c1)CCN1CCC(Cc2ccccc2)CC1` showed a melting point of 165 to 166 °C. Work on `CN(C)C(=O)COc1ccc2c(c1)C[C@@H](NC[C@H](O)c1ccc(O)cc1)CC2` yielded a melting point of 169 to 172 °C. In the case of `O=c1[nH]c2cc(S(=O)c3cccc4cnccc34)c([N+](=O)[O-])cc2s1` (stereo not drawn), the melting point is reported as > 270 °C. In the case of `O=c1c2cc([N+](=O)[O-])ccc2cc2n1CCCS2(=O)=O`, the melting point is reported as 242 to 244 °C. In the case of `COC(=O)Nc1cn2nc(OCc3cc(OC)c(OC)c(OC)c3Br)ccc2n1`, the melting point is reported as 218 to 219 °C. For `CCc1nn2c(N3CCNCC3)cc(C)nc2c1S(=O)(=O)c1ccccc1`, the melting point was 150 to 151 °C. `CCc1[nH]n(-c2c(Cl)cc(Cl)cc2Cl)c2nc(Cc3ccc(-c4ccc(OC)cc4)cc3)nc(=O)c1-2` gave a melting point of 275 to 277 °C. In the case of `CCOC(=O)C1=COc2cc(OC(C)=O)ccc2O1`, the melting point is reported as 88 °C. `COc1cc2c(cc1OC)C(=O)C(C#N)C2` (stereo not drawn) showed a melting point of 177 to 179 °C. With `FC(F)(F)Oc1ccc(C=Cc2nc[nH]n2)cc1` the melting point was 125 to 127 °C. For `COc1ccc2cc(C=O)ccc2c1Br`, the melting point was 133 to 135 °C. `CC(C)(C)C(=O)Nc1ccc2oc3c(c2c1)CCC3` gave a melting point of 188 to 190 °C. For `O=C(O)c1ccc(OC2=C3N=C4CCCCC4=C3C(CCCCc3ccccc3)C=C2)o1` (stereo not drawn), the melting point was 120 to 121 °C. Work on `Nc1nc2c(c(Nc3ccc(Cl)cc3)n1)-c1ccccc1C2` yielded a melting point of 216 to 217 °C. For `O=c1ccc(-c2c(-c3ccccc3)nn3ccccc23)nn1C1CCCCC1=Cc1nnn[nH]1` (stereo not drawn), the melting point was 129 to 131 °C. With `Nc1ccc2c(c1)CN1CC(=O)NC1=N2` the melting point was > 275 °C. Compound `CCN(CC)CCNc1ccc(C2C(C(=O)OC)=C(C)NC(C)=C2C(=O)OC)cc1[N+](=O)[O-]` has a melting point of 161 °C. For `COc1cccc(OC)c1-c1nc2c(N[C@H]3[C@@H](C(N)=O)[C@@H]4C=C[C@H]3C4)c(Br)cnc2[nH]1`, the melting point was 194 to 197 °C. With `CS(=O)(=O)Cc1ccc(C(=O)c2ccc(Cl)cc2)cc1` the melting point was 164 to 166 °C. Work on `CCCCCCCNC(=O)N(C)c1cccc(-c2ccc(C=C(OC)C(=O)O)cc2OCCCC)c1` yielded a melting point of 99 °C. For `O=C1COCCOCC(=O)N2CCOCCOCCN1CCOCC2`, the melting point was 105 °C. For `Cn1cc(-c2cc3cccnc3[nH]2)c2cc(C(=O)NC(C)(C)CO)ccc21`, the melting point was 161 to 162 °C. In the case of `CC1=Nc2ccc(C)cc2C(O)(c2ccccc2)N1N` (stereo not drawn), the melting point is reported as 192 to 196 °C. With `Fc1cccc(F)c1-c1nn(-c2ccccc2C(F)(F)F)c(=S)o1` the melting point was 128 to 130 °C. Compound `O=C(O)CCC(=NOCc1ccc(OCc2csc(-c3ccccc3)n2)cc1)c1ccccc1` has a melting point of 104 to 105 °C. Work on `O=[N+]([O-])c1sc2ccc(F)cc2c1Br` yielded a melting point of 129 to 130 °C. Work on `CC(=O)CC(=O)C=Cc1ccc(O)cc1Cl` yielded a melting point of 125 to 129 °C. For `CC(CO[N+](=O)[O-])NC(=O)[C@@H]1CSC(=O)N1` (stereo partly drawn), the melting point was 112 to 114 °C. `COc1cccc(Cc2cnc(N[N+](=O)[O-])[nH]c2=O)c1` showed a melting point of 178 to 179 °C. With `CC(=O)N1C[C@@H](P(c2ccc(C)cc2)c2ccc(C)cc2)[C@H](P(c2ccc(C)cc2)c2ccc(C)cc2)C1` the melting point was 164 to 167 °C. `Nc1cc(=O)n(Cc2ccc3c(c2)OCO3)[nH]1` gave a melting point of 218 °C. `N#Cc1cnn2c(C(F)(F)F)cc(-c3ccc(C(F)(F)F)c(F)c3)nc12` showed a melting point of 184 °C. `COc1cccc(-c2nc(N)c(C#N)nc2-c2ccc(=O)n(C(C)C)c2)c1` gave a melting point of 192 °C. In the case of `COC(=O)On1c(C(=O)OC)cc2c(C)ccc(C)c21`, the melting point is reported as 75 to 80 °C. `CSc1nc2c(Cl)ccc(-n3c(=O)cc(C(F)(F)F)n(C)c3=O)c2s1` showed a melting point of 79 to 81 °C. In the case of `Cc1nc(-c2cccc(NC(=O)N3CCc4c(cnc5[nH]nc(Br)c45)C3)c2)no1`, the melting point is reported as > 152 °C. `CCOC(=O)c1cc(C(=O)C(C)(C)Br)c(=O)[nH]c1C(=O)OCC` showed a melting point of 124 to 126 °C. Compound `Cc1ccc(NC(=O)c2ccccc2SSc2ccccc2C(=O)Nc2ccc(C)c(C)c2)cc1C` has a melting point of 224 to 227 °C. Compound `NS(=O)(=O)c1ccc(-n2nc(CCNC(=O)Nc3cccc(C(F)(F)F)c3)cc2-c2ccccc2)cc1` has a melting point of 122 to 125 °C. In the case of `CCCCOC(=O)[C@H]1CN(c2ccc3c(c2)sc(=O)n3C)C(=O)O1`, the melting point is reported as 85 to 87 °C. For `CN1CCN(Cc2ccc(Cl)cc2Cl)C(C2(C)NCCN2)C1` (stereo not drawn), the melting point was 61 to 63 °C. Work on `Cc1ccc(-c2c(Cl)ncn2-c2ccc(S(C)(=O)=O)cc2)cc1F` yielded a melting point of 176 °C. For `O=C1c2ccccc2OC(CCCl)CN1Cc1ccccc1` (stereo not drawn), the melting point was 145 to 147 °C. With `COc1ccc(N(CCCC(=O)N(CCCC(=O)O)c2c(C)cccc2C)C(=O)c2ccc(Cl)cc2)cc1` the melting point was 131 to 133 °C. For `Cc1cc(C)cc(C(=O)c2[nH]c(=O)[nH]c(=O)c2C(C)C)c1`, the melting point was 149 to 150 °C. With `FC(F)(F)c1cccc(NC2CCCN(c3ccc(Cl)nn3)C2)c1` (stereo not drawn) the melting point was 92.6 °C. `CS(=O)(=O)c1ccc(-c2ccc(S(=O)(=O)CC(CO)N(O)C=O)cc2)cc1` (stereo not drawn) gave a melting point of 165 to 167 °C. With `CCCCC(CC(=O)O)c1cc(Cl)c(OC)cc1OC` (stereo not drawn) the melting point was 91 to 92 °C. `CCNc1nc(-c2ccc(NC(=O)NCc3cccnc3)cc2)ccc1C(=O)NC` gave a melting point of 260 to 263 °C.

— a melting point compilation (Tetko et al.; mined from patent text by program, amines drawn as free bases though some values may be those of a salt)
